Test results taken from US6235493A, “Amino acid substituted-cresyl violet, synthetic fluorogenic substrates for the analysis of agents in individual in vivo cells or tissue” (priority 1998, dated 2001).

Assays:
cathepsin B [1] = molecular target: T1, cathepsin B (Rattus norvegicus, UniProt P00787); experiment: Cathepsin B activity in living CC531 colon cancer cells (CSLM, (Z-Arg)^2 -cresyl violet); type: cell-based; conditions: living CC531 cells, 10 μM substrate (printed μm), 5 min, PBS
Method: An established rat colon carcinoma cell line, CC531, was used for all experiments. The parental cell line was obtained from a 1,2-dimethylhydrazine-induced moderately differentiated and weakly immunogenic colon adenocarcinoma in WAG-Rij rats (44). Cells were cultured in vitro at 37° C. as monolayers in Dulbecco's modification of Eagle's medium (ICN Biomedicals, Irvine, Ayrshire, UK) supplemented with 10% (w/v) fetal bovine serum, 2 mM glutamine, 100 IU penicillin/ml and 100 μg streptomycin/ml. Cells were washed in PBS and, after detachment by scraping and centrifugation (250 g, room temperature, 10 min), a single cell suspension at a final concentration of 1×10^6 cancer cells in 50 μl of PBS was obtained with a viability of at least 95% (45,46). Cell suspension were either used for cytochemical purposes or for in vivo administration to induce metastases in the liver.
(§1) Cathepsin B activity was detected in real-time in living CC531 cells and freshly prepared living rat hepatocytes after isolation by collagenase perfusion of livers of male mature rats after 24 h of starvation (47). At time point zero, cell preparations were diluted 20-fold in PBS containing either 10 μM (Z-Arg)^2 -cresyl violet (Enzyme Systems Products, Dublin, Calif.) as fluorogenic substrate for cathepsin B (48) or 10 μM substrate and 20 μM FMK (Protek, Dublin, Calif.), as selective cathepsin B inhibitor (40,41). The fluorogenic substrate is not fluorescent but after proteolytic cleavage, liberated cresyl violet is fluorescent. Synthesis of the substrate is described elsewhere in Ref. 48. The substrate was dissolved first in dimethyl formamide (final concentration in the incubation medium was 1% (v/v)). An aliquot of 100 μl of the cell suspensions was brought into a well formed by a stainless steel ring attached to a glass slide (49). Images of cells were captured in real-time with a Leica CSLM fitted to a Leica Fluovert inverted microscopic equipped with a PL APO oil-immersion objective (×63, NA 1.40). Excitation was performed at a wavelength of 560 nm and fluorescence was captured at greater than 580 nm. Excitation with the use of green light is harmless to living cells. The pinhole aperture was set at 100 giving an optimized image (50). With fixed pinhole, filter combination and a laser power setting adjusted to give minimal fading, the photomultiplier gain and photometric offset were optimized. Cells were subjected to optical serial sectioning after each 60 s of incubation up to 300 s. Images in the X-Y plane were recorded with intervals of 0.5 μm in the Z direction. For analysis, each optical section was averaged eight times. Images were recorded in a 512×512 pixel format. The size of each pixel represented 0.015 μm^2 in the object. […]

cathepsin B [2] = molecular target: T1, cathepsin B; experiment: Cathepsin B activity in living rat hepatocytes (CSLM, (Z-Arg)^2 -cresyl violet); type: cell-based; conditions: living rat hepatocyte, 10 μM substrate (printed μm), 5 min, PBS
Method: as §1, with “Excitation with the use of green light is harmless to living cells. The pinhole aperture was set at 100 giving an optimized image (50). With fixed pinhole, filter combination and a laser power setting adjusted to give minimal fading, the photomultiplier gain and photometric offset were optimized. Cells were subjected to optical serial sectioning after each 60 s of incubation up to 300 s.” left out, “For analysis, each optical section was averaged eight times.” left out, “format.” for “format. The size of each pixel represented 0.015 μm^2 in the object.”

[3] = tested on: living hepatocytes and colon cancer cells; experiment: Penetration of cresyl violet-based substrates into living cells; type: cell-based, rat
Method: Cathepsin B activity was detected in real-time in living CC531 cells and freshly prepared living rat hepatocytes after isolation by collagenase perfusion of livers of male mature rats after 24 h of starvation (47). At time point zero, cell preparations were diluted 20-fold in PBS containing either 10 μM (Z-Arg)^2 -cresyl violet (Enzyme Systems Products, Dublin, Calif.) as fluorogenic substrate for cathepsin B (48) or 10 μM substrate and 20 μM FMK (Protek, Dublin, Calif.), as selective cathepsin B inhibitor (40,41). The fluorogenic substrate is not fluorescent but after proteolytic cleavage, liberated cresyl violet is fluorescent. Synthesis of the substrate is described elsewhere in Ref. 48. The substrate was dissolved first in dimethyl formamide (final concentration in the incubation medium was 1% (v/v)). An aliquot of 100 μl of the cell suspensions was brought into a well formed by a stainless steel ring attached to a glass slide (49). […] Excitation was performed at a wavelength of 560 nm and fluorescence was captured at greater than 580 nm. […] Images in the X-Y plane were recorded with intervals of 0.5 μm in the Z direction. […] Images were recorded in a 512×512 pixel format. […]
The localization properties of cresyl violet in individual cells were investigated using confocal microscopy. […] The fluorescence is localized only in patches at the plasma membrane. […]

T1 sequence (P00787 80-333): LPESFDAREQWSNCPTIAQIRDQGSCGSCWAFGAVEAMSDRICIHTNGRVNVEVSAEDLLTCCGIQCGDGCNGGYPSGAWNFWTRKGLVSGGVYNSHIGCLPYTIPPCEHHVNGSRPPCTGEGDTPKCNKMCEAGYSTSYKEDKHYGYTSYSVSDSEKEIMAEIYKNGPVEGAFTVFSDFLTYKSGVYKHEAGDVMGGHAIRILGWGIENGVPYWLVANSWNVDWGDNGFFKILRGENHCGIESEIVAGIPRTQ

SMILES: N=C(N)NCCC[C@H](NC(=O)OCc1ccccc1)C(=O)NC1=CC2Oc3cc(NC(=O)[C@H](CCCNC(=N)N)NC(=O)OCc4ccccc4)ccc3N=C2c2ccccc21 (stereo partly drawn) [[Z-Arg]^2-cresyl violet]
- localization of cathepsin B activity (cresyl violet fluorescence) (cathepsin B [1]): found at the plasma membrane (large arrowheads) and intracellularly
- localization of cathepsin B activity (cresyl violet fluorescence) (cathepsin B [2]): present in granular lysosome-like intracellular compartments
- cell penetration [3]: penetrate living cells
